# Results reported in patent publication US5908868A, “Retinol derivatives useful for enhancing immune response” (priority 1995, dated 1999).
# Read-outs that look alike come from different tables or passages of the source.
# Experiments:
# B lymphocytes = assay: B cell growth/survival; type: cell-based; conditions: on a concentration basis
# [1] = Stability (half-life) in serum-free tissue culture; type: in vitro ADME
# [2] = Chemical stability during extraction; type: physicochemical
# Reversion to retinol = type: in vitro ADME
# [3] = cited from earlier work
# 5/2 lymphoblastoid cells = type: in vitro ADME, human
# Description: FIG. 24. Kinetics of biosynthesis of 14HRR in lymphoblastoid cells. 50 ml ITLB 600,000 5/2 cells/ml were incubated with 20 μCi of ^3 H retinol in serum-free ITLB medium. Cell pellets corresponding to 10 ml of culture were delipidated at 20 minute intervals and the corresponding lipid fraction separated on an analytical C18 reversed-phase column (see FIG. 20). Radioactive peaks were identified by coelution with cold reference retinoids.
# The kinetics of biosynthesis of 13,14DHR and 14HRR were determined in 5/2 lymphoblastoid cells. These cells were cultured in the presence of ^3 H retinol for different time periods, and the cell-associated retinoids extracted as referenced above. They were then chromatographed on an analytical C18 column as described in FIG. 20. The sizes of peaks emerging at 16.8 minutes, representing 13,14DHR, and 18.5 minutes, representing 14HRR, were measured and plotted in the bar diagram of FIG. 24.
# Ket = assay: Retinol metabolism; type: in vitro ADME, human
# Description: (§1) FBS. The FBS was preincubated at room temperature with 14.4 uCi [^3 H
# (§2) retinol (NEN) for 4 h. The cell pellet was washed twice with PBS. The
# (§3) retinoid were extracted according to MClean et al. 90 and separated on an
# (§4) analytical c18 reverse phase column according to FIG. 7. The DPM wer
# (§5) determined using an online scintillation counter.
# Raji (4°) = assay: Retinol metabolism; type: in vitro ADME, human
# Description: as §1, §2, §3, §4, §5
# Raji (37°) = assay: Retinol metabolism; type: in vitro ADME, human
# Description: as §1, §2, §3, §4, §5
# SKL3 = assay: Retinol metabolism; type: in vitro ADME, human
# Description: as §1, §2, §3, §4, §5
# Hela = assay: Retinol metabolism; type: in vitro ADME, human
# Description: as §1, §2, §3, §4, §5
# 5/2 = assay: Retinol metabolism; type: in vitro ADME, human
# Description: as §1, §2, §3, §4, §5
# N-tera2 = assay: Retinol metabolism; type: in vitro ADME, human
# Description: as §1, §2, §3, §4, §5
# SK-N-SH = assay: Retinol metabolism; type: in vitro ADME, human
# Description: as §1, §2, §3, §4, §5
# thymocytes = assay: Proliferation of Con A activated thymocytes in serum-free medium; type: cell-based, BALB/c mouse; conditions: Con A 0.5 μg/ml, retinol 3×10^-6 M, ITLB
# Description: Purified thymocytes (5×10^5 cells/well) were stimulated by TCR crosslinking with immobilized anti-CD3e antibody (FIG. 15A) or 0.4 μg/ml Con A (FIG. 15B) in serum-free ITLB medium. The indicated amounts of retinoids were added either once at the beginning of the experiment (marked as "1x") or every 12 hours thereafter (marked as "6x"). DNA synthesis was measured after 72 hours by tritiated thymidine uptake as described.
# Thymuses of 3 to 6-week-old BALB/c mice were teased in serum-free RPMI medium supplemented with 1% BSA, 10^-6 M linoleic acid and antibiotics. […] Cell viability was evaluated by trypan blue dye exclusion. To determine the extent of depletion of accessory cells, samples were stained with FITC-conjugated anti-Fc receptor antibody and analyzed by flow cytometry on a FACScan instrument (Becton Dickinson). No FcR-bearing cells were detected by this procedure.
# Cells were cultured in serum-free medium, referred to as ITLB, containing RPMI 1640 supplemented with 8×10^-7 M insulin (5 μg/ml), 7×10^-8 M transferrin (5 μg/ml), 2×10^-6 M linoleic acid, 2×10^-6 M delipidated BSA (0.12 mg/ml), 2 mM L-glutamine, 1 mM sodium pyruvate and antibiotics. […] The optimal concentration for stimulation of T cells was determined for each batch of anti-CD3 mAb and Con A. The optimal range of Con A was particularly narrow in serum-free medium (0.5-0.2 μg/ml) and varied with the cell density used. […]
smiles,measurement,setting,value
"CC(C=CC=C(C)C(O)CO)=CC=C1C(C)=CCCC1(C)C (stereo not shown) [14HRR, 14-hydroxy-4,14-retro-retinol]",activity relative to all-trans retinol in B cells,B lymphocytes,10-30 fold more active
same,lability relative to retinal,[1],much more labile molecule than retinal
same,stability to acid extraction,[2]; acid extraction step,does not survive an acid extraction step
same,stability in chloroform,[2]; chloroform,unstable in chloroform
same,reversion to retinol,Reversion to retinol,does not revert to retinol
"CC1=C(/C=C/C(C)=C/C=C/C(C)=C/CO)C(C)(C)CCC1 [retinol, all-trans retinol]",half-life,"[3]; cell culture, serum-free medium (32)",< 24 h
same,half-life,[3]; serum-free tissue culture medium (32),~24 h
same,order of metabolite production,5/2 lymphoblastoid cells,"production of 13,14DHR precedes that of 14HRR"
same,Total cts.,Ket,4.6 × 10^5 cts.
same,Ester (% of taken up retinol),Ket; overnight,41%
same,P3 (% of taken up retinol),Ket; overnight,3%
same,Retinol (% of taken up retinol),Ket; overnight,52%
same,Total cts.,Raji (4°); 2.5 × 10^6 cells,2.5 × 10^5 cts.
same,Ester (% of taken up retinol),Raji (4°); overnight,0%
same,P3 (% of taken up retinol),Raji (4°); overnight,0%
same,Retinol (% of taken up retinol),Raji (4°); overnight,99%
same,Total cts.,Raji (37°); 2.5 × 10^6 cells,4.0 × 10^5 cts.
same,Ester (% of taken up retinol),Raji (37°); overnight,14%
same,P3 (% of taken up retinol),Raji (37°); overnight,3%
same,Retinol (% of taken up retinol),Raji (37°); overnight,79%
same,Total cts.,SKL3; SKL3,1.6 × 10^5 cts.
same,Ester (% of taken up retinol),"SKL3; SKL3, overnight",24%
same,P3 (% of taken up retinol),"SKL3; SKL3, overnight",2%
same,Retinol (% of taken up retinol),"SKL3; SKL3, overnight",71%
same,Total cts.,Hela,1.0 × 10^5 cts.
same,Ester (% of taken up retinol),Hela; overnight,20%
same,P3 (% of taken up retinol),Hela; overnight,3%
same,Retinol (% of taken up retinol),Hela; overnight,71%
same,Total cts.,5/2; 5/2,5.7 × 10^5 cts.
same,Ester (% of taken up retinol),"5/2; 5/2, overnight",24%
same,P3 (% of taken up retinol),"5/2; 5/2, overnight",4%
same,Retinol (% of taken up retinol),"5/2; 5/2, overnight",67%
same,Total cts.,N-tera2; N-tera2,13.5 × 10^5 cts.
same,Ester (% of taken up retinol),"N-tera2; N-tera2, overnight",97%
same,P3 (% of taken up retinol),"N-tera2; N-tera2, overnight",0.4%
same,Retinol (% of taken up retinol),"N-tera2; N-tera2, overnight",0.7%
same,Total cts.,SK-N-SH,2.0 × 10^5 cts.
same,Ester (% of taken up retinol),SK-N-SH; overnight,25%
same,P3 (% of taken up retinol),SK-N-SH; overnight,0.9%
same,thymocyte proliferation,thymocytes,growing exponentially
